Measurements taken from patent US20120184586A1, “DESFERRITHIOCIN POLYETHER ANALOGUES AND USES THEREOF” (University of Florida Research Foundation, Inc., priority 2009, published 2012).
Where “and” joins values, the source holds several entries; their conditions need not be identical. Equal entries are not always repeated. Entries after “also recorded” stand apart in the source; their conditions may differ. Where two headings read alike, the source gives them in different places.

How the values were obtained:
[1] = tested on: non-iron-overloaded, bile duct-cannulated rats; test: Chelator-induced iron clearance (ICE, biliary ferrokinetics) in non-iron-overloaded, bile duct-cannulated rodents; assay type: in vivo, rat (male Sprague-Dawley); conditions: for ICE (iron-clearing efficiency), rodents / time of maximum iron clearance (MIC), biliary ferrokinetics / time until iron excretion is over / returned to baseline, biliary ferrokinetics: bile duct-cannulated rats; for ICE relative to parent ligand 2 (times) / ICE relative to trioxa polyether 4 (times): rodents, po 300 μmol/kg; for time of maximum iron clearance (MIC), biliary ferrokinetics / time until iron excretion is over / returned to baseline, biliary ferrokinetics: 300 μmol/kg PO
[2] = tested on: iron-overloaded Cebus apella primates; test: Chelator-induced iron clearance (ICE) in iron-overloaded Cebus apella primates; assay type: in vivo; conditions: for performance ratio (PR), mean ICEprimates/ICErodents: current study; for ICE (iron-clearing efficiency), primates: iron-overloaded C. apella
Experimental: The drugs were administered in capsules (6, 7), solubilized in either 40% Cremophor RH-40/water (1), distilled water (4), or were given as their monosodium salts, prepared by the addition of 1 equiv of NaOH to a suspension of the free acid in distilled water (2, 3, 5). The efficiency of each compound was calculated by subtracting the 24-h iron excretion of control animals from the iron excretion of the treated animals. The number was then divided by the theoretical output; the result is expressed as a percent. […] The relative percentages of the iron excreted in the bile and urine are in brackets. ^cIn the primates [n=4 (1, 3, 4, 5, 6 in capsules, 7) or 7 (2, 6 as the monosodium salt)], the chelators were given po at a dose of 75 μmol/kg (5-7) or 150 μmol/kg (1-4). The drugs were administered in capsules (6^d, 7), solubilized in either 40% Cremophor RH-40/water (1, 3), distilled water (4), or were given as their monosodium salts, prepared by the addition of 1 equiv of NaOH to a suspension of the free acid in distilled water (2, 5, 6^e).
Iron chelators in a Cebus apella monkey model. […] Briefly, the monkeys are iron overloaded with iron dextran administered intravenously to result in an iron loading of about 500 mg per kg of body weight. At least 20 half-lives, 60 days, elapse before the animals are used in experiments evaluating iron chelators. The iron chelators are suspended in vehicle and administered either p.o. or s.c. Fecal and urine samples are collected at 24 hour intervals beginning 4 days prior to the administration of an iron chelator and continued for 5 days after the chelator is administered. Iron concentrations in stool and urine are determined by flame atomic absorption spectroscometry. Iron chelator efficiency is calculated by dividing the net iron clearance [total iron excretion (stool plus urine) minus background] by the theoretical iron clearance and multiplying by 100. The theoretical clearance of the iron chelator is generated on the basis of a 2:1 ligand/iron complex.
Drug preparation and administration. In the iron clearing experiments, the rats were given 5-7 orally at a dose of 300 μmol/kg. Ligand 5 was given by gavage as its monosodium salt (prepared by the addition of 1 equiv of NaOH to a suspension of the free acid in distilled water), while 6 and 7 were given in capsules. The primates were given 5-7 orally at a dose of Ligand 5 was given to the primates by gavage as its monosodium salt. Analogue 6 was given to the monkeys by gavage as its monosodium salt, as well as in capsules. Ligand 7 was given to the monkeys in capsules.

[3] = Hydrolysis of ester 7 to acid 6 in rat plasma; assay type: in vitro ADME; conditions: 37° C., solubilized in DMSO
Experimental: (§1) The profound difference between the ICE of the parent acid chelator 6 versus that of the ester 7 in rodents and primates is consistent with two possible explanations: 1) The ester is poorly absorbed from the gastrointestinal (GI) tract in the primates, or 2) The primate non-specific serum esterases simply may not cleave ester 7 to the active chelator acid 6. An experiment was performed using rat and monkey plasma in an attempt to determine if the relatively poor ICE of 7 in the primates was due to interspecies differences in hydrolysis. When 7 was solubilized in DMSO and incubated at 37° C. with rat plasma, all of the ester had been converted to the active acid 6 within 1-2 h. This was also the case when the experiment was carried out with plasma from Cebus apella monkeys. Thus, there is no difference in the hydrolysis of 7 between the rats and the primates. Therefore, the poor ICE of 7 in the monkeys is consistent with the idea that the ester is absorbed much more effectively from the GI tract of the rodents than from the GI tract of the primates. Control experiments were also performed in which saline was used in place of the rat or monkey plasma.
(§2) Plasma analytical methods. […] The chelator concentrations were calculated from the peak area fitted to calibration curves by non-weighted least-squares linear regression with Shimadzu CLASS-NP 7.4 Chromatography Software. […]

[4] = Hydrolysis of ester 7 to acid 6 in Cebus apella monkey plasma; assay type: in vitro ADME; conditions: 37° C., solubilized in DMSO
Experimental: as §1, §2

[5] = Control incubation of ester 7 in saline in place of plasma; assay type: physicochemical; conditions: solubilized in DMSO
Experimental: as §1
The ethyl ester (7) was solubilized in DMSO and further diluted with distilled water to provide a 100 μM solution. A 25 μL aliquot of the drug solution was added to centrifuge tubes containing 100 μL of rat or primate plasma. […]

[6] = tested on: rats; test: Tissue iron decorporation in rats after 10 days of oral dosing; assay type: in vivo, rat (male Sprague-Dawley)
From the text: Tissue iron decorporation: As described above, rodents were given acid 6 or 7 orally at a dose of 384 μmol/kg/day×10 days. Ethyl ester 7 was also given at a dose of 192 μmol/kg/d×10 days. On day 11, the animals were euthanized and the kidney, liver, pancreas, and heart were removed.
Male Sprague-Dawley rats (300-350 g) were fasted overnight and were given the chelators first thing in the morning. […] Ligand 6 was given to the rats orally once daily at a dose of 384 μmol/kg/d×10 d. Note that this dose is equivalent to 100 mg/kg/day of the DFT sodium salt. The chelator (6) was administered orally in gelatin capsules (n=5), or by gavage as its monosodium salt (n=10). The ethyl ester (7) was administered orally in capsules once daily at a dose of 192 (n=6) or 384 μmol/kg/d (n=5)×10 d. Age-matched rats (n=12) served as untreated controls. The rats were euthanized 24 h post-drug (day 11) and extensive tissues were collected for histopathological analysis. Samples of the kidney, liver, heart and pancreas were reserved and assessed for their iron content.
The initial step in the tissue preparation involved removing any obvious membranes or fat. A sample of each tissue (300-350 mg) was weighed and transferred to acid-washed hydrolysis (pressure) tubes. Note that the same region of each tissue was always utilized. […] The tubes were then sealed and placed in a 120° C. oil bath for 5 h; the tubes were vented as necessary. Then, the tubes were removed from the oil bath and allowed to cool to room temperature. The temperature of the oil bath was decreased to 100° C. Once the samples were cooled, 0.7 mL of hydrogen peroxide (30%) was added to the hydrolysis tube. The samples were placed back in the oil bath and cooked overnight. The samples were then removed from the oil bath and allowed to cool to room temperature. The hydrolysis tubes were vortexed and the digested samples were poured into 50-mL volumetric flasks. The samples were brought to volume using distilled water. Finally, the samples were poured into a syringe and filtered using 0.45μ 30 mm, Teflon syringe filters. Iron concentrations were determined by flame absorption spectroscopy as presented in other publications.^40,41

[7] = Octanol/water partition (log Papp), shake flask direct method, Tris buffer pH 7.4; conditions: from log Papp values
Experimental: The efficiency of each compound was calculated by subtracting the 24-h iron excretion of control animals from the iron excretion of the treated animals. The number was then divided by the theoretical output; the result is expressed as a percent. […] The relative percentages of the iron excreted in the bile and urine are in brackets. ^cIn the primates [n=4 (1, 3, 4, 5, 6 in capsules, 7) or 7 (2, 6 as the monosodium salt)], the chelators were given po at a dose of 75 μmol/kg (5-7) or 150 μmol/kg (1-4).
The partition values between octanol and water (at pH 7.4, Tris buffer) were determined using a “shake flask” direct method of measuring log Papp values.^52 The fraction of drug in the octanol is then expressed as log Papp.

[8] = historical findings from references; cited from earlier work
[9] = tested on: non-iron-overloaded, bile duct-cannulated rats; conditions: historical data, cited from earlier work
[10] = trial abandoned by Genzyme; cited from earlier work
[11] = tested on: iron-overloaded Cebus apella primates; conditions: cited from earlier work
[12] = 2:1 complex with Fe(III); cited from earlier work
[13] = 192 μmol/kg/d × 10 days po in capsules
[14] = 384 μmol/kg/day × 10 days po in capsules
[15] = po 75 μmol/kg by gavage as monosodium salt
[16] = 384 μmol/kg/day × 10 days po as sodium salt
[17] = bile duct-cannulated rats, po 300 μmol/kg

## CCOC(=O)[C@@]1(C)CSC(c2ccc(OCCOCCOC)cc2O)=N1 [ligand 7, ethyl (S)-4,5-dihydro-2-[2-hydroxy-4-(3,6-dioxaheptyloxy)phenyl]-4-methyl-4-thiazolecarboxylate]
[1]; po 300 μmol/kg in capsules
  ICE (iron-clearing efficiency), rodents: 25.9±6.5%
[1]
  ICE relative to parent ligand 2 (times): approximately 24
[2]
  performance ratio (PR), mean ICEprimates/ICErodents: 0.33
[2]; po 75 μmol/kg in capsules
  ICE (iron-clearing efficiency), primates: 8.8±2.2%
[2]; primates
  ICE relative to acid 6: only one third
[3]
  time for conversion of all of the ester to the active acid 6: 1 to 2 h
[4]
  time for conversion of all of the ester to the active acid 6: 1 to 2 h
[5]
  stability of the ester in saline: all of the drug remained in the form of the ester
[6]; [13]
  decrease of cardiac iron vs untreated controls: Neither dose was associated with a reduction
  reduction of liver iron vs untreated controls: 27%
  reduction of pancreatic iron vs untreated controls: Neither dose was associated with a reduction
  reduction of renal iron content vs untreated controls: 12.6%
[6]; [14]
  decrease of cardiac iron vs untreated controls: Neither dose was associated with a reduction
  reduction of liver iron vs untreated controls: 59.1%
  reduction of pancreatic iron vs untreated controls: Neither dose was associated with a reduction
  reduction of renal iron content vs untreated controls: 32.1%
[7]; 7 vs 1
  fold difference in partition: greater than 58.000 fold
[7]; 7 vs 2
  times more lipophilic than the parent 2: 11,220

## COCCOCCOc1ccc(C2=N[C@@](C)(C(=O)O)CS2)c(O)c1 [ligand 6, (S)-4,5-dihydro-2-[2-hydroxy-4-(3,6-dioxaheptyloxy)phenyl]-4-methyl-4-thiazolecarboxylic acid]
[1]; po 300 μmol/kg in capsules
  ICE (iron-clearing efficiency), rodents: > 26%
[1]; po 300 μmol/kg in capsules, listed as 6
  ICE (iron-clearing efficiency), rodents: 26.7±4.7%
[1]
  ICE relative to trioxa polyether 4 (times): nearly five times greater
[2]
  performance ratio (PR), mean ICEprimates/ICErodents: 1.0
[2]; [15]
  ICE (iron-clearing efficiency), primates: 28.7±12.4%
[2]; po 75 μmol/kg in capsules
  ICE (iron-clearing efficiency), primates: 26.3±9.9% and > 26%
[6]; [16]
  decrease of cardiac iron vs untreated controls: 9.9%
  reduction of liver iron vs untreated controls: > 35%
  reduction of pancreatic iron vs untreated controls: significant reduction in pancreatic iron
  reduction of renal iron content vs untreated controls: 24.8%
[6]; [14]
  decrease of cardiac iron vs untreated controls: 6.9%
  reduction of liver iron vs untreated controls: > 35%
  reduction of pancreatic iron vs untreated controls: but not when it was dosed in capsules
  reduction of renal iron content vs untreated controls: 7.4%

## COc1ccc(C2=N[C@@](C)(C(=O)O)CS2)c(O)c1 [ligand 3, (S)-4,5-dihydro-2-(2-hydroxy-4-methoxyphenyl)-4-methyl-4-thiazolecarboxylic acid]
[8]
  nephrotoxicity: very nephrotoxic; also recorded: unacceptably nephrotoxic

## C[C@]1(C(=O)O)CSC(c2ccc(O)cc2O)=N1 [ligand 2, (S)-2-(2,4-dihydroxyphenyl)-4,5-dihydro-4-methyl-4-thiazolecarboxylic acid]
[1]
  time of maximum iron clearance (MIC), biliary ferrokinetics: 3 h
  time until iron excretion is over / returned to baseline, biliary ferrokinetics: 9 h
[9]; [17]
  ICE (iron-clearing efficiency), rodents: 1.1±0.8%
[10]
  clinical trial outcome: abandoned by Genzyme because of renal toxicity

## COCCOCCOCCOc1ccc(C2=N[C@@](C)(C(=O)O)CS2)c(O)c1 [ligand 4, (S)-4,5-dihydro-2-[2-hydroxy-4-(3,6,9-trioxadecyloxy)phenyl]-4-methyl-4-thiazolecarboxylic acid, reference compound]
[1]
  time of maximum iron clearance (MIC), biliary ferrokinetics: 3 h
  time until iron excretion is over / returned to baseline, biliary ferrokinetics: 12 h
  ICE relative to parent ligand 2 (times): five times greater
[2]; primates
  ICE relative to longer analogue 5 (times): 2.5
[9]; [17]
  ICE (iron-clearing efficiency), rodents: 5.5±1.9%
[8]
  nephrotoxicity: virtually absent of any nephrotoxicity

## COCCOCCOCCOc1ccc(O)c(C2=NC(C)(C(=O)O)CS2)c1 (single isomer, unassigned) [5′-isomer of 4]
[11]; previously reported (ref 46)
  performance ratio (PR), mean ICEprimates/ICErodents: 1
[11]; previously reported, dose not stated
  ICE (iron-clearing efficiency), primates: 8.1±2.8%

## COCCOCCOCCOCCOc1ccc(C2=N[C@@](C)(C(=O)O)CS2)c(O)c1 [ligand 5, (S)-4,5-dihydro-2-[2-hydroxy-4-(3,6,9,12-tetraoxamidecyloxy)phenyl]-4-methyl-4-thiazolecarboxylic acid]
[1]
  time of maximum iron clearance (MIC), biliary ferrokinetics: 6 h
  time until iron excretion is over / returned to baseline, biliary ferrokinetics: 24 h
  ICE relative to parent ligand 2 (times): ~11
  ICE relative to trioxa polyether 4 (times): twice as effective
[1]; po 300 μmol/kg by gavage as monosodium salt
  ICE (iron-clearing efficiency), rodents: 12.0±1.5%
[2]
  performance ratio (PR), mean ICEprimates/ICErodents: 0.82
[2]; [15]
  ICE (iron-clearing efficiency), primates: 9.8±1.9%

## C[C@]1(C(=O)O)CSC(c2ncccc2O)=N1 [ligand 1, (S)-4,5-dihydro-2-(3-hydroxy-2-pyridinyl)-4-methyl-4-thiazolecarboxylic acid]
[9]; bile duct-cannulated rodent model, po 150 μmol/kg
  ICE (iron-clearing efficiency), rodents: 5.5%
[11]; iron-overloaded C. apella, po 150 μmol/kg, historical data
  ICE (iron-clearing efficiency), primates: 16%
[12]
  log β2: 29.6
[8]
  nephrotoxicity: severely nephrotoxic
